Source: PubChem BioAssay AID1224920 (Broad Institute, 2016)
Several values for one entry are separate records, joined by “and”; a condition that tells them apart may be missing. Equal entries are not always repeated. Activity calls are given as the source filed them.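 The calls were made as follows: active = IC50 no higher than ten times the top tested dose; inconclusive = flat fit with 30 to 70% inhibition, or poor fit; inactive = IC50 above ten times the top dose.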

Tested on: Clostridium difficile clinical isolate growth, OD600, 24 h
Experiment: growth modulation of Clostridium difficile isolate – OD600, 9-point, retest, dose response (AID 1224920);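 also: inhibitors lower culture turbidity so OD600 falls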

Row | SMILES | IC50
1 | COc1ccc(-c2ccc(C3[C@@H]4CN(S(=O)(=O)c5ccccc5C)C[C@H]3N4)cc2)cc1 (some centres not stated) | 21.9 µM
2 | O=C(c1ccccc1)N1CC[C@@H]2[C@H]1c1cc(-c3ccc(F)cc3)ccc1N[C@@H]2CO | 129 µM
3 | Cc1cccc(-c2ccc(C3[C@@H]4CN(Cc5ccccc5)C[C@H]3N4)cc2)c1 (some centres not stated) | 17.1 µM
4 | Cc1ccc(-c2ccc([C@@H]3[C@H](CO)N4CCCCN(C(=O)c5ccc(F)cc5)C[C@@H]34)cc2)cc1 | 24.3 µM
5 | Cc1ccc(-c2ccc(C3[C@@H]4CN(Cc5cccc(F)c5)C[C@H]3N4)cc2)cc1 (some centres not stated) | 2.8 µM and 12.6 µM
6 | OC[C@H]1[C@@H](c2ccc(C#CC3CCCC3)cc2)[C@@H]2CN(CCC(F)(F)F)CCCCN12 | 48.2 µM
7 | OC[C@@H]1[C@H](c2ccc(-c3ccccc3)cc2)[C@@H]2CN(CCC(F)(F)F)CCCCN12 | 56.6 µM
8 | Cc1ccccc1-c1ccc(C2[C@H]3CNC[C@@H]2N3C(=O)Nc2ccc(Cl)cc2)cc1 (some centres not stated) | 16.9 µM and 34.3 µM
9 | COc1cccc(CN2C[C@@H]3N[C@H](C2)C3c2ccc(-c3ccccc3OC)cc2)c1 (some centres not stated) | 34.1 µM
10 | COc1cccc(S(=O)(=O)N2C[C@@H]3N[C@H](C2)C3c2ccc(-c3ccccc3C)cc2)c1 (some centres not stated) | 28.6 µM
11 | Cc1ccccc1-c1ccc(C2[C@H]3CNC[C@@H]2N3C(=O)Nc2ccc(C(F)(F)F)cc2)cc1 (some centres not stated) | 17.4 µM
12 | OC[C@@H]1Nc2ccc(C#Cc3cccc(F)c3)cc2[C@@H]2NCC[C@H]12 | 42.8 µM
13 | OC[C@H]1[C@@H](c2ccc(-c3ccc(F)cc3)cc2)[C@@H]2CN(CCC(F)(F)F)CCCCN12 | 72.8 µM
14 | COc1ccc(NC(=O)N2CCCCN3[C@@H](CO)[C@@H](c4ccc(C#Cc5ccccc5)cc4)[C@@H]3C2)cc1 | 16.2 µM
15 | C/C=C/c1ccc(C2[C@H]3CNC[C@@H]2N3Cc2cc(-c3ccccc3)on2)cc1 (some centres not stated) | 32.7 µM
16 | O=S(=O)(Cc1ccccc1)N1CCCCN2[C@@H](CO)[C@@H](c3ccc(-c4ccc(F)cc4)cc3)[C@@H]2C1 | 38 µM
17 | Fc1cccc(-c2ccc([C@@H]3[C@@H]4CN(Cc5nccs5)C[C@H]3N4)cc2)c1 | 66.3 µM
18 | O=C(Nc1ccccc1)N1CCCCN2[C@@H](CO)[C@@H](c3ccc(C#Cc4ccccc4)cc3)[C@@H]2C1 | 19 µM
19 | C(=C\c1ccc(C2[C@H]3CNC[C@@H]2N3Cc2nccs2)cc1)/c1ccccc1 (some centres not stated) | 60.4 µM
20 | Cc1ccccc1-c1ccc(C2[C@@H]3CN(Cc4ccc5c(c4)OCO5)C[C@H]2N3)cc1 (some centres not stated) | 5.63 µM and 15.6 µM
21 | OC[C@H]1Nc2ccc(-c3ccccc3)cc2[C@@H]2[C@H]1CCN2Cc1ccccc1F | 129 µM

Row | SMILES | IC50
22 | Cc1cccc(S(=O)(=O)N2CCCCN3[C@H](CO)[C@H](c4ccc(C#CC5CC5)cc4)[C@H]3C2)c1 | 27.9 µM
23 | O=S(=O)(c1ccc(F)cc1)N1C[C@@H]2N[C@H](C1)C2c1ccc(-c2ccc(F)cc2)cc1 (some centres not stated) | 128 µM
24 | O=C(C[C@H]1CC[C@@H]2[C@H](COC[C@H](O)CN2C(=O)Nc2ccc(Cl)c(Cl)c2)O1)NC1CCC1 | 8.25 µM
25 | O=C(C[C@H]1CC[C@@H]2[C@H](COC[C@@H](O)CN2C(=O)Nc2ccc(Cl)c(Cl)c2)O1)NC1CCC1 | 27.5 µM
26 | Fc1cccc(CN2C[C@@H]3N[C@H](C2)[C@@H]3c2ccc(-c3cccc(F)c3)cc2)c1 | 6.05 µM
27 | Cc1ccc(-c2ccc(C3[C@H]4CNC[C@@H]3N4S(=O)(=O)c3cccc(C)c3)cc2)cc1 (some centres not stated) | 30.3 µM
28 | O=C(Nc1ccc(F)cc1)N1C[C@@H]2N[C@H](C1)C2c1ccc(/C=C/c2ccccc2)cc1 (some centres not stated) | 5.52 µM and 10 µM
29 | COc1ccc2c3c(n(C)c2c1)[C@@H](CO)NCC31CN(Cc2ccc(Cl)cc2)C1 | 50 µM
30 | c1ccc(CN2C[C@@H]3N[C@H](C2)C3c2ccc(-c3ccccc3)cc2)cc1 (some centres not stated) | 18.9 µM and 26.2 µM
31 | O=C(Nc1ccccc1)N1CCCCN2[C@H](CO)[C@H](c3ccc(C#Cc4ccccc4)cc3)[C@H]2C1 | 9.4 µM
32 | CC(C)CC#Cc1ccc([C@H]2[C@@H](CO)N3CCCCN(C(=O)Nc4ccccc4)C[C@H]23)cc1 | 12.8 µM
33 | COc1cccc(-c2ccc(C3[C@@H]4CN(C(=O)c5ccc(F)cc5)C[C@H]3N4)cc2)c1 (some centres not stated) | 65.4 µM
34 | O=C(Nc1cccc(Cl)c1)N1[C@@H]2CNC[C@H]1C2c1ccc(-c2ccccc2)cc1 (some centres not stated) | 44.8 µM and 74.3 µM
35 | O=C(C[C@@H]1CC[C@@H]2[C@H](COC[C@@H](O)CN2C(=O)Nc2ccc(C(F)(F)F)cc2)O1)NC1Cc2ccccc2C1 | 6.53 µM
36 | N#Cc1ccc(-c2ccc(C3[C@@H]4CN(C(=O)Nc5ccc(C(F)(F)F)cc5)C[C@H]3N4)cc2)cc1 (some centres not stated) | 29.7 µM
37 | CCCC#Cc1ccc([C@H]2[C@H](CO)N3CCCCN(S(=O)(=O)c4ccccc4C)C[C@@H]23)cc1 | > 240 µM (inactive)
38 | COc1ccc(C#Cc2ccc([C@@H]3[C@@H](CO)N4CCCCN(Cc5ccccc5F)C[C@@H]34)cc2)cc1 | 25.4 µM
39 | O=C(Nc1ccc(C(F)(F)F)cc1)N1[C@@H]2CNC[C@H]1C2c1ccc(/C=C/c2ccccc2)cc1 (some centres not stated) | 19.5 µM and 4.14 µM
40 | OC[C@@H]1Nc2ccc(-c3ccc(F)cc3)cc2[C@H]2[C@@H]1CCN2Cc1ccc(F)cc1 | 90.2 µM
41 | COc1ccc(C#Cc2ccc([C@H]3[C@H](CO)N4CCCCN(C(=O)Nc5ccc(F)cc5)C[C@@H]34)cc2)cc1 | 5.67 µM
42 | Cc1ccccc1-c1ccc(C2[C@@H]3CN(C(=O)Nc4ccc(F)cc4)C[C@H]2N3)cc1 (some centres not stated) | 40.5 µM
